According to paper PMC10656235, “Reversible and irreversible inhibitors of coronavirus Nsp15 endoribonuclease” (The Journal of Biological Chemistry, 2023):
Where “and” joins values, the source holds several entries; their conditions need not be identical. Identical values can stand only once. Entries after “also recorded” stand apart in the source; their conditions may differ. Like-named read-outs stand apart in the source and are kept apart here.

Experiments:
[1] = target: T1, SARS-CoV-2 Nsp15 (Severe acute respiratory syndrome coronavirus 2, UniProt P0DTD1)
[2] = target: T1, SARS-CoV-2 Nsp15; assay: biochemical; assay type: biochemical
[3] = tested on: SARS-CoV-2; assay: microbe, parasite or virus in culture; assay type: cell-based; conditions: for Viral titers at a single subtoxic concentration: MOI = 0.1, 24 h postinfection, vs DMSO; for Selectivity index: from CC50 and cellular IC50 in Vero CCL-81 cells
[4] = target: T1, SARS-CoV-2 Nsp15; assay: Nsp15 FRET-based activity assay; assay type: biochemical; conditions: for Nsp15 inhibition with 5′FAM and 5′Cy5 substrates and quenching: compounds at 25 μM and 50 μM
[5] = target: T1, SARS-CoV-2 Nsp15; assay: FRET assay with nonionic detergent (colloidal aggregate test); assay type: biochemical; conditions: 0.01% Triton-X or CHAPS
[6] = target: MERS Nsp15 (Middle East respiratory syndrome-related coronavirus, UniProt K9N7C7); assay type: biochemical
Sequence of MERS Nsp15 (K9N7C7 6433-6775 limits assumed): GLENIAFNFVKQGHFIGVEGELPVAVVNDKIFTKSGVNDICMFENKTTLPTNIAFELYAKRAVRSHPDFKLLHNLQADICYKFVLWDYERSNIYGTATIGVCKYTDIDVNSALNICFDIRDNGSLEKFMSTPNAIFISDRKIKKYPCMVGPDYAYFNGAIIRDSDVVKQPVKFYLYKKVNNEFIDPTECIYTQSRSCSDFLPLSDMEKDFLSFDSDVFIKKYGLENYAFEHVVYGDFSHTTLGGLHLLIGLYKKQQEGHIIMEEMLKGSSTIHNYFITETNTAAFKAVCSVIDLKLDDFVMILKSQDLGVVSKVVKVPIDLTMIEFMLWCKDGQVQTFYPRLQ

[7] = target: T1, SARS-CoV-2 Nsp15; assay: Nsp15 native RNA cleavage assay (denaturing PAGE, SYBR Gold); assay type: biochemical
[8] = target: T1, SARS-CoV-2 Nsp15; assay: Reversibility: reaction progress after dilution of preincubated enzyme-inhibitor complex; assay type: biochemical; conditions: 60 min preincubation, 1:50 dilution
[9] = Cell cytotoxicity assay (CellTiter-Glo); conditions: African green monkey, CC50, 24 h
[10] = in vitro; conditions: African green monkey
[11] = target: T1, SARS-CoV-2 Nsp15; assay: MALDI-TOF mass spectrometry of Nsp15 preincubated with compound; conditions: preincubation with fivefold molar excess of compound
[12] = target: SARS-CoV-1 Nsp15 (Severe acute respiratory syndrome coronavirus, UniProt P0C6X7); assay type: biochemical
[13] = target: T1, SARS-CoV-2 Nsp15; assay: Effect of DTT on compound inhibition of Nsp15; assay type: biochemical; conditions: 10 mM vs 1 mM DTT
[14] = tested on: Calu-3 cells; design: method as in PMID 33886614; conditions: cited from earlier work
[15] = RNA substrate titration 0 to 10 µM
[16] = extra sum-of-squares F test, highest inhibitor dose
[17] = IC50, Nsp15 activity, FRET assay, Nsp15 1 ng/μl, ~12 min at 37 °C
[18] = 31-nt single rU RNA, 1 h at 37 °C
[19] = Severe acute respiratory syndrome coronavirus 2, 24 h, read-out: IC50, viral inhibition, Vero CCL-81 cells, MOI = 0.1, 24 h infection
[20] = read-out: IC50, viral inhibition, Vero CCL-81 cells, MOI = 0.1, 24 h infection

| Compound | Ki [2] | Kinetic mechanism / predicted type of inhibition [2, 15] | Km diff. vs DMSO [2, 16] | Vmax diff. vs DMSO [2, 16] | Viral titers at a single subtoxic concentration ([3]; Vero CCL-81 cells) | IC50 [4, 17] | Nsp15 inhibition with 5′FAM and 5′Cy5 substrates and quenching [4] | Change of Nsp15 activity with inhibitor when detergent is present [5] | Inhibition of MERS Nsp15 [6] | Inhibition of native RNA substrate cleavage [7, 18] | Reversibility of inhibition [8] | CC50 at 24 h ([9]; Fig. S15) | other results |
| --- | --- | --- | --- | --- | --- | --- | --- | --- | --- | --- | --- | --- | --- |
| 5′-FAM-CAACUAAACGAAC-BHQ1-3′ [RNA2] |  |  |  |  |  |  |  |  |  |  |  |  | Vmax [1]: ~0.3 µM/min; Km ([1]; read-out: Km of substrate): ~3 µM |
| CC(=O)Nc1ccc(NS(=O)(=O)c2ccc3c(c2)C(=O)c2ccccc2C3=O)cc1 [CID5220994] | 72.9 ± 11.6 µM | competitive with substrate | Yes | No | not statistically different from the control | ~50 µM and 50.9 µM | inhibited Nsp15 using either substrate, without appreciable quenching | higher increase in activity | only modest effects | dose-dependent effects | Nsp15 activity was restored | 15 to 42 µM | Vmax (best-fit) ([2]; inhibitor 50µM): 0.31 µM/min; Vmax (best-fit) ([2]; inhibitor 100µM): 0.28 µM/min |
| O=C(N/N=C/c1ccccc1O)c1ccc(O)c(O)c1 [CID5266986] | 64.9 ± 16.9 µM | mixed mechanisms of inhibition | Yes | Yes | not statistically different from the control | ~78 µM and 78 µM | inhibited Nsp15 using either substrate, without appreciable quenching | increase in Nsp15 activity | only modest effects | dose-dependent effects | Nsp15 activity was restored | 15 to 42 µM | Vmax (best-fit) ([2]; inhibitor 125µM): 0.22 µM/min; Vmax (best-fit) ([2]; inhibitor 175µM): 0.21 µM/min |
| O=C1/C(=C/c2cc([N+](=O)[O-])cc(Br)c2O)SC(=S)N1Cc1ccccc1 [CID5675221] | 6.71 ± 2.31 µM | mixed mechanisms of inhibition | Yes | Yes | significantly reduced viral titers | ~20 µM and 20.7 µM | inhibited Nsp15 using either substrate, without appreciable quenching | increase in Nsp15 activity |  | dose-dependent effects | Nsp15 activity was restored | > 240 µM | Vmax (best-fit) ([2]; inhibitor 15µM): 0.21 µM/min; Vmax (best-fit) ([2]; inhibitor 30µM): 0.17 µM/min; IC50 [3, 19]: 19 ± 3.9 µM; Selectivity index [3]: ~15; IC50 [3, 20]: ~20 µM and < 20 µM; CC50 at 24 h ([9]; measured in parallel with viral inhibition, Fig. 6): 290 ± 28 µM |
| Oc1ccc2ccccc2c1SSc1c(O)ccc2ccccc12 [IPA-3, reference compound] |  | noncompetitive | No | Yes | significantly reduced viral titers |  | inhibited Nsp15 using either substrate, without appreciable quenching | increase in Nsp15 activity | only modest effects; also recorded: reduced effect | dose-dependent effects | irreversible |  | Ki ([2]; fit to Michaelis-Menten inhibition models, read-out: Computed Ki ± SE): 10.8 ± 0.87 µM; Vmax (best-fit) ([2]; inhibitor 5µM): 0.23 µM/min; Vmax (best-fit) ([2]; inhibitor 20µM): 0.11 µM/min; CC50 at 24 h [10]: 43 ± 4.8 µM; Peak shift of Nsp15 versus apoprotein [11]: ~333 Da; IC50 ([3]; Severe acute respiratory syndrome coronavirus 2, 24 h, Vero CCL-81 cells, MOI = 0.1, 24 h infection, read-out: IC50, viral inhibition): 8.5 ± 1.1 µM; IC50 ([3]; Vero CCL-81 cells, MOI = 0.1, 24 h infection, read-out: IC50, viral inhibition): 10 µM; Selectivity index [3]: ~5; IC50 ([4]; FRET assay, Nsp15 1 ng/μl, ~12 min at 37 °C, read-out: IC50, Nsp15 activity): ~7 µM and 6.8 µM; Inhibition of SARS-CoV-1 Nsp15 [12]: equal potency; Effect of excess DTT on inhibition [13]: excess DTT nearly completely reversed inhibition |
| Nc1c(S(=O)(=O)O)cc(Nc2ccc(Nc3nc(Cl)nc(Nc4cccc(S(=O)(=O)O)c4)n3)c(S(=O)(=O)O)c2)c2c1C(=O)c1ccccc1C2=O [Reactive Blue 2, reference compound] |  |  |  |  |  |  | inhibited Nsp15 using either substrate, without appreciable quenching |  |  | produced a fluorescent artifact |  |  |  |
| Oc1c(Cl)cc(Cl)c(Cl)c1Cc1c(O)c(Cl)cc(Cl)c1Cl [hexachlorophene, reference compound] | 1.23 ± 0.3 µM |  |  | Yes | significantly reduced viral titers |  | inhibited Nsp15 using either substrate, without appreciable quenching | increase in Nsp15 activity |  |  | Nsp15 activity was restored |  | Kinetic mechanism / predicted type of inhibition [2]: mixed mechanisms of inhibition; Km diff. vs DMSO [2]: Yes; Vmax (best-fit) ([2]; inhibitor 3µM): 0.24 µM/min; Vmax (best-fit) ([2]; inhibitor 6µM): 0.19 µM/min; Kinetic mechanism / predicted type of inhibition ([2]; listed as Hexachlorophene): Mixed; IC50 [3, 19]: 0.91 ± 0.044 µM; IC50 [3, 20]: ~1 µM; IC50 ([4]; IC50, Nsp15 activity): ~1 µM and 1.6 µM and 1 to 2 µM; Inhibition of native RNA substrate cleavage [7]: dose-dependent effects; Inhibition of SARS-CoV-1 Nsp15 [12]: less potent |
| CCC(CC)COC(=O)[C@H](C)N[P@](=O)(OC[C@H]1O[C@@](C#N)(c2ccc3c(N)ncnn23)[C@H](O)[C@@H]1O)Oc1ccccc1 [remdesivir] |  |  |  |  | significantly reduced viral titers |  |  |  |  |  |  |  |  |
| CC1(C)CCC2=C(O1)c1ccccc1C(=O)C2=O [β-lapachone, reference compound] |  |  |  |  |  |  | inhibited Nsp15 using either substrate, without appreciable quenching |  |  |  |  |  |  |
| Exebryl-1 |  |  |  |  |  |  |  |  |  |  |  |  | EC50 [14]: ~65 µM |
